How the values were obtained:
Assay in all cases: Postemergence herbicidal activity, field trial in rice, Espinal, Colombia
Details in all cases: 29 DAA, postemergence foliar
[1] = system: Cyperus iria L. (rice flatsedge, CYPIR); format: in vivo
Procedure: (§1) These trials were conducted under field conditions in Espinal, Colombia. Trial sites were located in commercially grown fields of common rice (Oryza sativa). The rice crop was grown using normal cultural practices for fertilization, seeding, and maintenance to ensure good growth of the crop and the weeds. The trials were conducted using normal research methodology. Trial plots were 2 meters (m) wide by 5 m long. All treatments were applied using a randomized complete block trial design with 4 replications per treatment. The trial sites had naturally occurring populations of weeds. The weed spectrum included, but was not limited to, Cyperus iria L. (rice flatsedge, CYPIR), Phyllanthus niruri L. (gripeweed, PYLNI) and Corchorus spp (jute, CRGSS). The plots were treated with a postemergence foliar application 19 days after emergence of the rice.
(§2) Treatments consisted of tank mixes of aminopyralid triisopropanolammonium salt (MILESTONE 240SL) and commercially available formulations of bentazon herbicide (BASAGRAN 480SL). The application volume was 200 liters per hectare (L/ha) of water. All application were made using precision gas hand sprayers with a 2 m boom using flat fan (8002) nozzles to broadcast the treatments over the top of the rice and weeds.
(§3) The treated plots and control plots were rated blind at various intervals after application. Ratings were based on Percent (%) Visual weed control, where 0 corresponds to no injury and 100 corresponds to complete kill.
(§4) Colby's equation was used to determine the herbicidal effects expected from the mixtures (Colby, S. R. Calculation of the synergistic and antagonistic response of herbicide combinations. Weeds 1967 15, 20-22).
(§5) The following equation was used to calculate the expected activity of mixtures containing two active ingredients, A and B: Expected=A+B−(A×B/100)
(§6) A=observed efficacy of active ingredient A at the same concentration as used in the mixture;
(§7) B=observed efficacy of active ingredient B at the same concentration as used in the mixture.

[2] = system: Phyllanthus niruri L. (gripeweed, PYLNI); format: in vivo
Procedure: as §1, §2, §3, §4, §5, §6, §7

[3] = system: Corchorus spp (jute, CRGSS); format: in vivo, Corchorus sp
Procedure: as §1, §2, §3, §4, §5, §6, §7

SMILES | Visual Weed Control (%) CYPIR Obs ([1]; aminopyralid 4 g ae/ha alone) [%] | Visual Weed Control (%) CYPIR Obs ([1]; aminopyralid 8 g ae/ha alone) [%] | Visual Weed Control (%) CYPIR Obs ([1]; aminopyralid 16 g ae/ha alone) [%] | Visual Weed Control (%) PYLNI Obs ([2]; aminopyralid 4 g ae/ha alone) [%] | Visual Weed Control (%) PYLNI Obs ([2]; aminopyralid 8 g ae/ha alone) [%] | Visual Weed Control (%) PYLNI Obs ([2]; aminopyralid 16 g ae/ha alone) [%] | Visual Weed Control (%) CRGSS Obs ([3]; aminopyralid 4 g ae/ha alone) [%] | Visual Weed Control (%) CRGSS Obs ([3]; aminopyralid 8 g ae/ha alone) [%] | Visual Weed Control (%) CYPIR Obs ([1]; bentazon 180 g ai/ha alone) [%] | Visual Weed Control (%) PYLNI Obs ([2]; bentazon 180 g ai/ha alone) [%] | Visual Weed Control (%) CRGSS Obs ([3]; bentazon 180 g ai/ha alone) [%]
Nc1cc(Cl)nc(C(=O)O)c1Cl [Aminopyralid, 4-amino-3,6-dichloro-2-pyridinecarboxylic acid] | 0 | 0 | 41 | 0 | 0 | 0 | 48 | 70 | – | – | –
CC(C)N1C(=O)c2ccccc2NS1(=O)=O [Bentazon, 3-(1-methylethyl)-1H-2,1,3-benzothiadiazin-4(3H)-one 2,2-dioxide] | – | – | – | – | – | – | – | – | 74 | 19 | 80

Source: US9314024B2, “Herbicidal compositions comprising aminopyralid and bentazon” (Dow AgroSciences LLC, priority 2012, dated 2016)
